In US11066414B2, “Cot modulators and methods of use thereof” (Gilead Sciences, Inc., priority 2015, dated 2021):
Read-outs that look alike come from different tables or passages of the source.

Key:
Human Cot = Human Cot (Homo sapiens (Human), UniProt P41279); assay: High Throughput Cot Biochemical Assay
TNFα = assay: Cot Monocyte TNFα Cell Based Assay
[1] = IC50 HTRF, Cot HTRF (TR-FRET KinEASE) biochemical assay, 400 μM ATP
[2] = Homo sapiens, Monocyte, read-out: EC50 TNF, LPS-stimulated human monocytes, TNFα TR-FRET
[3] = IC50 HTRF, Cot HTRF (TR-FRET) biochemical assay
[4] = Homo sapiens, Monocyte, read-out: EC50 TNF, LPS-stimulated human monocytes, TNFα
[5] = read-out: IC50 HTRF, Cot HTRF (TR-FRET KinEASE) biochemical assay, 400 μM ATP
[6] = read-out: EC50 TNF, LPS-stimulated human monocytes, TNFα TR-FRET
[7] = read-out: IC50 HTRF, Cot HTRF (TR-FRET) biochemical assay
[8] = read-out: EC50 TNF, LPS-stimulated human monocytes, TNFα

Sequence of Human Cot (P41279 30-397): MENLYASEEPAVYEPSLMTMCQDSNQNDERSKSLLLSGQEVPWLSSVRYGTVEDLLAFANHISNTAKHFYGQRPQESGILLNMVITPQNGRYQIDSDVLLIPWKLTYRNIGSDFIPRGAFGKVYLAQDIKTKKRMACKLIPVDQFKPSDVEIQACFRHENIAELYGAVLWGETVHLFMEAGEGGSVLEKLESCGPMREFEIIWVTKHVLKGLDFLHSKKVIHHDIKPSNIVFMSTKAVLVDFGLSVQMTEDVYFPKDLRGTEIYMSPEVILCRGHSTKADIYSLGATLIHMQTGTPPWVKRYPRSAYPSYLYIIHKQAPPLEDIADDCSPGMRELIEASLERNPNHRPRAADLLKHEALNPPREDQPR

SMILES | IC50 (Human Cot; [3]) | EC50 (TNFα; [4]) | other results
Cc1nc(F)ccc1[C@H](Nc1cc(C#N)c2ncc(C#N)c(NCC(C)(C)C)c2c1)c1cn(CC2(C(F)(F)F)CC2)nn1 [Example 839, (S)-6-(((6-fluoro-2-methylpyridin-3-yl)(1-((1-(trifluoromethyl)cyclo-propyl)methyl)-1H-1,2,3-triazol-4-yl)methyl)amino)-4-(neopentylamino)quinoline-3,8-dicarbonitrile] | – | – | IC50 (Human Cot; [1]): 6 nM; EC50 (TNFα; [2]): 94 nM
CC(C)(C)CNc1c(C#N)cnc2c(C#N)cc(N[C@H](c3cn(C4(C(F)(F)F)CC4)nn3)c3cccc4cnccc34)cc12 [Example 470, (S)-6-((isoquinolin-5-yl(1-(1-(trifluoromethyl)cyclopropyl)-1H-1,2,3-triazol-4-yl)methyl)amino)-4-(neopentylamino)quinoline-3,8-dicarbonitrile] | 2 nM | 46 nM | –
N#Cc1cnc2c(Cl)cc(N[C@@H](c3cccnc3)c3c[nH]nn3)cc2c1Nc1ccc(Cl)c(Cl)c1F [Example 256, (S)-8-chloro-4-((3,4-dichloro-2-fluorophenyl)amino)-6-((pyridin-3-yl(1H-1,2,3-triazol-4-yl)methyl)-amino)quinoline-3-carbonitrile] | 16 nM | 341 nM | –
Cc1nc(F)ccc1[C@H](Nc1cc(Cl)c2ncc(C#N)c(N[C@@H]3CCOCC3(C)C)c2c1)c1cn(C2(C(F)F)CC2)nn1 [Example 539, 8-chloro-6-(((S)-(1-(1-(difluoromethyl)-cyclopropyl)-1H-1,2,3-triazol-4-yl)(6-fluoro-2-methylpyridin-3-yl)methyl)-amino)-4-(((R)-3,3-dimethyltetrahydro-2H-pyran-4-yl)amino)quinoline-3-carbonitrile] | 1 nM | 12 nM | –
COc1nccc2c([C@H](Nc3cc(C#N)c4ncc(C#N)c(NCC(C)(C)C)c4c3)c3cn(C45CC(C4)C5)nn3)cccc12 [Example 807, (S)-6-(((1-(bicyclo[1.1.1]pentan-1-yl)-1H-1,2,3-triazol-4-yl)(1-methoxylsoquinolin-5-yl)methyl)amino)-4-(neopentylamino)quinoline-3,8-dicarbonitrile] | – | – | IC50 (Human Cot; [5]): 3 nM; EC50 (TNFα; [6]): 31 nM
COC[C@H](Nc1c(C#N)cnc2c(Cl)cc(N[C@@H](c3cccnc3)c3cn(C(C)C)nn3)cc12)c1ccccc1 [Example 204, 8-chloro-6-(((S)-(1-isopropyl-1H-1,2,3-triazol-4-yl)(pyridin-3-yl)methyl)amino)-4-(((R)-2-methoxy-1-phenylethyl)amino)quinoline-3-carbonitrile] | 8510 nM | > 10000 nM | –
Cc1ccc([C@H](Nc2cc(Cl)c3ncc(C#N)c(Nc4ccc(F)c(Cl)c4)c3c2)c2c[nH]nn2)cn1 [Example 271, (S)-8-chloro-4-((3-chloro-4-fluorophenyl)amino)-6-(((6-methylpyridin-3-yl)(1H-1,2,3-triazol-4-yl)methyl)amino)quinoline-3-carbonitrile] | 9 nM | 826 nM | –
CC(C)(C)CNc1c(C#N)cnc2c(C#N)cc(N[C@H](c3cn(C4(C(F)F)CC4)nn3)c3ccc(F)c4cnccc34)cc12 [Example 672] | – | – | IC50 (Human Cot; [7]): 2 nM; EC50 (TNFα; [8]): 22 nM
[2H][C@](Nc1cc(Cl)c2ncc(C#N)c(N[C@@H](CC#N)c3ccccc3)c2c1)(c1ccc(F)nc1)c1cn(C2CC2)nn1 [Example 128, 8-chloro-4-(((S)-2-cyano-1-phenylethyl)amino)-6-(((S)-(1-cyclopropyl-1H-1,2,3-triazol-4-yl)(6-fluoropyridin-3-yl)methyl-d)amino)quinoline-3-carbonitrile] | 698 nM | > 10000 nM | –
Cc1nc(F)ccc1[C@H](Nc1cc(Cl)c2ncc(C#N)c(NCC(C)(C)C)c2c1)c1cn(C2(CO)CC2)nn1 [Example 482, (S)-8-chloro-6-(((6-fluoro-2-methylpyridin-3-yl)(1-(1-(hydroxymethyl)cyclopropyl)-1H-1,2,3-triazol-4-yl)methyl)amino)-4-(neopentylamino)quinoline-3-carbonitrile] | 3 nM | 86 nM | –
N#Cc1cnc2c(Cl)cc(N[C@@H](c3cccnc3)c3c[nH]nn3)cc2c1Nc1cnc(F)c(F)c1 [Example 207, (S)-8-chloro-4-((5,6-difluoropyridin-3-yl)amino)-6-((pyridin-3-yl(1H-1,2,3-triazol-4-yl)methyl)amino)quinoline-3-carbonitrile] | 5 nM | 931 nM | –
CC(C)(C)CNc1c(C#N)cnc2c(Cl)cc(N[C@H](c3cn(C4(C(F)F)CC4)nn3)c3cccc4ncccc34)cc12 [Example 508, (S)-8-chloro-6-(((1-(1-(difluoromethyl)-cyclopropyl)-1H-1,2,3-triazol-4-yl)(quinolin-5-yl)methyl)amino)-4-(neopentylamino)-quinoline-3-carbonitrile] | 4 nM | 96 nM | –
Cc1ncccc1[C@H](Nc1cc(Cl)c2ncc(C#N)c(N[C@H](C)c3ccccc3)c2c1)c1cn(C2COC2)nn1 [Example 171, 8-chloro-6-(((S)-(2-methylpyridin-3-yl)(1-(oxetan-3-yl)-1H-1,2,3-triazol-4-yl)methyl)amino)-4-(((R)-1-phenylethyl)amino)quinoline-3-carbonitrile] | 10 nM | 320 nM | –
Cn1ccc2c([C@H](Nc3cc(Cl)c4ncc(C#N)c(NCC(C)(C)C)c4c3)c3cn(C4(C)CCC4)nn3)cccc2c1=O [Example 800, (S)-8-chloro-6-(((2-methyl-1-oxo-1,2-dihydroiso-quinolin-5-yl)(1-(1-methylcyclobutyl)-1H-1,2,3-triazol-4-yl)methyl)amino)-4-(neopentylamino)quinoline-3-carbonitrile] | – | – | IC50 (Human Cot; [5]): 2 nM; EC50 (TNFα; [6]): 25 nM
CC(C)(C)CNc1c(C#N)cnc2c(C#N)cc(N[C@H](c3cn(C4(C(F)(F)F)CC4)nn3)c3ccc(F)c4cnccc34)cc12 [Example 626] | – | – | IC50 (Human Cot; [7]): 5 nM; EC50 (TNFα; [8]): 35 nM
CC(C)(C)CNc1c(C#N)cnc2c(F)cc(N[C@H](c3cn(C4(C(N)=O)CCC4)nn3)c3cccc4ncsc34)cc12 [Example 481, (S)-1-(4-(benzo[d]thiazol-7-yl((3-cyano-8-fluoro-4-(neopentylamino)quinolin-6-yl)-amino)methyl)-1H-1,2,3-triazol-1-yl)cyclobutane-1-carboxamide] | 6 nM | 391 nM | –
CCN1CCC(n2cc([C@@H](Nc3cc(Cl)c4ncc(C#N)c(Nc5ccc(F)c(Cl)c5)c4c3)c3cc(C#N)cs3)nn2)CC1 [Example 372, (R)-8-chloro-4-((3-chloro-4-fluorophenyl)amino)-6-(((4-cyanothiophen-2-yl)(1-(1-ethylpiperidin-4-yl)-1H-1,2,3-triazol-4-yl)methyl)-amino)quinoline-3-carbonitrile] | 2 nM | 81 nM | –
[2H][C@](Nc1cc(Cl)c2ncc(C#N)c(NCC(C)(C)C)c2c1)(c1ccc(F)nc1)c1cn(CC(=O)NS(C)(=O)=O)nn1 [Example 425, (S)-2-(4-(((8-chloro-3-cyano-4-(neopentylamino)quinolin-6-yl)amino)(6-fluoropyridin-3-yl)methyl-d)-1H-1,2,3-triazol-1-yl)-N-(methyl-sulfonyl)acetamide] | 7 nM | 1000 nM | –
CC(C)(C)ONc1c(C#N)cnc2c(I)cc(N[C@H](c3cn(C4CC4)nn3)c3cccc4ncsc34)cc12 [Example 457, (S)-6-((benzo[d]thiazol-7-yl(1-cyclopropyl-1H-1,2,3-triazol-4-yl)methyl)amino)-4-(tert-butoxyamino)-8-iodoquinoline-3-carbonitrile] | 315 nM | 1000 nM | –
CC(C)n1cc([C@@H](Nc2cc(Cl)c3ncc(C#N)c(N[C@H](c4ccccc4)C(C)(C)O)c3c2)c2cccnc2)nn1 [Example 202, 8-chloro-4-(((R)-2-hydroxy-2-methyl-1-phenylpropyl)amino)-6-(((S)-(1-isopropyl-1H-1,2,3-triazol-4-yl)(pyridin-3-yl)methyl)amino)quinoline-3-carbonitrile] | > 10000 nM | > 10000 nM | –
Cc1nc(F)ccc1[C@H](Nc1cc(C#N)c2ncc(C#N)c(NCC(C)(C)C(F)(F)F)c2c1)c1cn(C23CC(C2)C3)nn1 [Example 833, (S)-6-(((1-(bicyclo[1.1.1]pentan-1-yl)-1H-1,2,3-triazol-4-yl)(6-fluoro-2-methylpyridin-3-yl)methyl)amino)-4-((3,3,3-trifluoro-2,2-dimethylpropyl)amino)quinoline-3,8-dicarbonitrile] | – | – | IC50 (Human Cot; [1]): 2 nM; EC50 (TNFα; [2]): 22 nM

More lines, main results first:

IC50 (Human Cot; [3]) | EC50 (TNFα; [4]) | SMILES | other results
4 nM | 293 nM | CC(C)(C)CNc1c(C#N)cnc2c(Cl)cc(N[C@H](c3cn(C4(C(F)(F)F)CC4)nn3)c3cccc4c(=O)n(CC(F)(F)F)ccc34)cc12 [Example 771, (S)-8-chloro-4-(neopentylamino)-6-(((1-oxo-2-(2,2,2-trifluoroethyl)-1,2-dihydroisoquinolin-5-yl)(1-(1-(trifluoromethyl)-cyclopropyl)-1H-1,2,3-triazol-4-yl)methyl)amino)quinoline-3-carbonitrile] | –
3 nM | 40 nM | Cc1nc(F)ccc1[C@H](Nc1cc(Cl)c2ncc(C#N)c(NCC(C)(C)C)c2c1)c1cn(C23CC(C2)C3)nn1 [Example 646, (S)-6-(((1-(bicyclo[1.1.1]pentan-1-yl)-1H-1,2,3-triazol-4-yl)(6-fluoro-2-methylpyridin-3-yl)methyl)amino)-8-chloro-4-(neopentylamino)quinoline-3-carbonitrile] | –
2 nM | 28 nM | CCn1ccc2c([C@H](Nc3cc(Cl)c4ncc(C#N)c(NCC(C)(C)C)c4c3)c3cn(C45CC(C4)C5)nn3)cccc2c1=O [Example 769, (S)-6-(((1-(bicyclo[1.1.1]pentan-1-yl)-1H-1,2,3-triazol-4-yl)(2-ethyl-1-oxo-1,2-dihydroisoquinolin-5-yl)methyl)amino)-8-chloro-4-(neopentylamino)quinoline-3-carbonitrile] | –
